Like-named read-outs stand apart in the source and are kept apart here.
Key:
[1] = Furathiocarb biotransformation kinetics in individual human hepatic microsomes (10 donors); format: in vitro ADME; details: for Variation between the highest and lowest formation rate / Metabolite formation rate (lowest to highest of 10 donors): at 300 µM furathiocarb; for Variation between the highest and lowest formation rate: 10 donors; for Metabolite formation rate (lowest to highest of 10 donors): individual human hepatic microsomes
Protocol: The incubation mixture (ﬁnal volume of 200 µl of 0.1 M phosphate buffer) contained 50 and 100 µM furathiocarb, 0.15 mg pooled liver microsomal protein (n = 10), and 1 mM NADPH. The reaction was initiated by NADPH after a 2 min pre-incubation at + 37 °C and was incubated for 30 min at + 37 °C. The reaction stopped with ice-cold acetonitrile containing an internal standard.
Enzyme kinetic parameters of both the microsomal samples and rCYP enzymes were measured. The incubation mixture contained furathiocarb (2.5, 10, 25, 50, 150 and 300 µM). Incubation times were 20 and 30 min for microsomal samples and rCYPs, respectively. Otherwise incubation mixtures and methods were the same as in metabolite identification. The rate of sum of furathiocarb metabolite formation was linear at least up to 0.15 mg protein/ml and 30 min incubation time in the standard experimental conditions.
The standard incubation mixture contained 50 and 100 µM furathiocarb, 0.15 mg pooled liver microsomal protein (n = 10), and 1 mM NADPH in a ﬁnal volume of 200 µl of 0.1 M phosphate buffer (pH 7.4). Furathiocarb was prepared once a week in dimethylsulfoxide (DMSO; ﬁnal amount in the reaction medium 1.0%). After a 2-min incubation at +37 ◦C in a shaking incubator block, the reaction was started by adding NADPH. The mixture was incubated at +37 ◦C for 30 min and the reaction was stopped with 600 µl of ice-cold acetonitrile containing an internal standard. All incubations were carried out in triplicate.

[2] = 54; cited from earlier work
CYP2D6 = details: cited from earlier work
2C19 = details: read-out: IC50, 2C19; range given jointly for CYP2C9, 2C19 and CYP2D6; no reference given; cited from earlier work
CYP2C9 = details: read-out: IC50, CYP2C9; range given jointly for CYP2C9, 2C19 and CYP2D6; no reference given; cited from earlier work
CYP3A4 [3] = details: cited from earlier work
2B6 = details: read-out: IC50, CYP 2B6; cited from earlier work
CYPs 1A1/2 = details: read-out: IC50, CYP 1A1/2; cited from earlier work
CYP3A4 [4] = test: in vitro; details: ketoconazole 100 µM, pooled human hepatic microsomes
Protocol: Formation rates of metabolites were determined in the presence or absence of ketoconazole 100 µM.
Each point represents the mean ± S.D of three separate determinations.

[5] = read-out: IC50, CYP3A4 (MDZ-OH)

CC1(C)Oc2c(O)cccc2C1O (stereo not drawn) [3-hydroxy-7-phenolcarbofuran]
Variation between the highest and lowest formation rate [1]: 23 fold
Metabolite formation rate (lowest to highest of 10 donors) [1]: 0.02–0.52 nmol/(mg protein min)

CNC(=O)Oc1cccc2c1OC(C)(C)C2O (stereo not drawn) [3-hydroxycarbofuran]
Variation between the highest and lowest formation rate [1]: 10 fold
Metabolite formation rate (lowest to highest of 10 donors) [1]: 0.68 to 6.83 nmol/(mg protein min)

CC1(C)Oc2c(O)cccc2C1=O [3-keto-7-phenolcarbofuran]
Metabolite amounts formed in HLM31 ([1]; HLM31, all furathiocarb concentrations used): below the limits of quantiﬁcation

CNC(=O)Oc1cccc2c1OC(C)(C)C2=O [3-ketocarbofuran]
Variation between the highest and lowest formation rate [1]: 54.4 fold
Metabolite formation rate (lowest to highest of 10 donors) [1]: 0.28–15.6 nmol/(mg protein min)

CC1(C)Cc2cccc(O)c2O1 [7-phenolcarbofuran]
Variation between the highest and lowest formation rate [1]: 2 fold
Metabolite formation rate (lowest to highest of 10 donors) [1]: 4.5–8.3 nmol/(mg protein min)

CNC(=O)Oc1cccc2c1OC(C)(C)C2 [Carbofuran, carbofuran]
Toxic class, WHO classification of pesticides by hazard [2]: 1b

CCCCN(CCCC)SN(C)C(=O)Oc1cccc2c1OC(C)(C)C2 [Carbosulfan]
IC50 (CYP2D6; read-out: IC50, CYP2D6, range given jointly for CYP2C9, 2C19 and CYP2D6, no reference given): 16 to 25 µM
IC50 (2C19): 16 to 25 µM
IC50 (CYP2C9): 16 to 25 µM
IC50 (CYP3A4 [3]; [5]): 11.2 µM

CCOP(=S)(OCC)Oc1nc(Cl)c(Cl)cc1Cl [Chlorpyrifos]
IC50 (CYP2D6; read-out: IC50, CYP 2D6): 3.3 µM
IC50 (2B6): 2.5 µM
IC50 (CYPs 1A1/2): 2.9 µM
IC50 (CYP3A4 [3]; read-out: IC50, CYP 3A4): 4 µM

CC(=O)N1CCN(c2ccc(OCC3COC(Cn4ccnc4)(c4ccc(Cl)cc4Cl)O3)cc2)CC1 (stereo not drawn) [Ketoconazole]
inhibition at 20 min, 100 µM (CYP3A4 [4]; human, microsomes, Inhibition of carbofuran metabolic pathway formation, various furathiocarb concentrations): 32 to 86%
Effect on the formation of metabolite A (CYP3A4 [4]): no effects

CCOC(=O)CCN(SN(C)C(=O)Oc1cccc2c1OC(C)(C)C2)C(C)C [benfuracarb]
IC50 (CYP3A4 [3]; [5]): 14.8 µM
